Reference: PMC7039932, “Development of Relaxin-3 Agonists and Antagonists Based on Grafted Disulfide-Stabilized Scaffolds” (Frontiers in Chemistry, 2020)
Values belong to the molecule of their own block, whether it stands above or below them. Where a SMILES comes first, the peptide text is derived from it. Bridges are numbered along the chain shown (N, C = ends). Where no end group is shown, it is not given here.

Key:
In vitro serum stability = type: in vitro ADME, human; conditions: for half-life at 2.5 µg/mL: human male pooled serum, 570 μl spiked with 30 μl peptide stock (0.05 μg/μl in H2O), quenched with 0.1 M ammonium acetate pH 3, SPE, LC-MS MRM, one phase decay, at least three replicates, read-out: Half-life in serum (T1/2) (converted)
Protocol: The in vitro serum stability was determined by peptide spiking, as previously described (Hossain et al., [2015]). Briefly, 570 μl human male pooled serum was spiked with 30 μl peptide stock solution (0.05 μg/μl in H2O). 100 μl samples were taken out at different time points and quenched with 900 μl ammonium acetate (0.1 M, pH 3). Samples were left on ice for 30 min before being extracted using solid phase extraction cartridges (Oasis HLB 3cc, Waters). Eluted samples were then lyophilized and reconstituted in 1% formic acid. The amount of intact peptide is reported relative to the amount of peptide available at timepoint 0 hr. Quantification was carried out using multiple reaction monitoring on a triple-quad LC-MS (API2000, AB Sciex) and the data analyzed using one phase decay in Prism 7.

RXFP3 [1] = molecular target: T1, RXFP3 (Homo sapiens, UniProt Q9NSD7); test: Inhibition of forskolin-induced cAMP accumulation, pCRE-β-galactosidase reporter, CHO-K1 cells stably expressing RXFP3; type: cell-based; conditions: CHO-K1-RXFP3 cells with pCRE-β-galactosidase reporter; 5 μM forskolin; mean ± SEM, number in parentheses = independent experiments in triplicate
T1 construct: expressed in transfected cells; host or cells: CHO-K1 cells stably expressing RXFP3
T1 sequence (Q9NSD7 1-469): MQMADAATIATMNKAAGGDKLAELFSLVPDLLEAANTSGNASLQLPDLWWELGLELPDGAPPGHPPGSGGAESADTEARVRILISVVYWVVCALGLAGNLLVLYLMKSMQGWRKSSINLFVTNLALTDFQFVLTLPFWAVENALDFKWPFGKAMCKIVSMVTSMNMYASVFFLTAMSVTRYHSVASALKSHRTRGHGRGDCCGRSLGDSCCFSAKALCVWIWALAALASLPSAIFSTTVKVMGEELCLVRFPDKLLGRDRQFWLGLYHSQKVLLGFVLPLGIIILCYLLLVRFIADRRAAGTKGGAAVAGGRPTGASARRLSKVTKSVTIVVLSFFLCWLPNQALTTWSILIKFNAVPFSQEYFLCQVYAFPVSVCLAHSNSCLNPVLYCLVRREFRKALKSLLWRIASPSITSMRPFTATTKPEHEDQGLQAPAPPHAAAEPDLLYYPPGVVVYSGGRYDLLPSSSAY
Protocol: The affinity and activity of the grafted peptides were determined as previously described (Haugaard-Kedström et al., [2015]). Briefly, for competition binding studies CHO-K1 cells stably expressing RXFP3 were incubated with 5 nM Eu-DTPA-R3 B1-22R and increasing concentrations of peptide analogs. Unlabeled R3 B1-22R was used as reference compound. The europium was detected by the addition of enhancement solution and fluorescence recorded using an excitation of 340 nm and emission reading at 614 nm. For agonists the ability of analogs to inhibit cAMP accumulation were tested in CHO-K1 cells stably expressing RXFP3 transfected with a pCRE-β-galactosidase reporter plasmid. Cells were stimulated with 5 μM forskolin and incubated with increasing concentrations of relaxin-3 analogs as previously described (Shabanpoor et al., [2012]). […] Data are expressed as mean ± SEM and analyzed using Prism 8 (GraphPad).
The binding affinity of the grafted peptides were determined using CHO cells stably expressing RXFP3 by measuring increasing concentrations of the grafted peptides' ability to compete for the binding site with europium labeled R3 B1-22R (Haugaard-Kedström et al., [2015]). Activation was measured by assessing the ability of the analogs to inhibit cAMP accumulation induced by forskolin in a reporter assay, as RXFP3 couples to an inhibitory G-protein.

RXFP3 [2] = molecular target: T2, RXFP3 (Homo sapiens, UniProt Q9NSD7); test: competition binding with Eu-R3 B1-22R on CHO-K1 cells
T2 chain: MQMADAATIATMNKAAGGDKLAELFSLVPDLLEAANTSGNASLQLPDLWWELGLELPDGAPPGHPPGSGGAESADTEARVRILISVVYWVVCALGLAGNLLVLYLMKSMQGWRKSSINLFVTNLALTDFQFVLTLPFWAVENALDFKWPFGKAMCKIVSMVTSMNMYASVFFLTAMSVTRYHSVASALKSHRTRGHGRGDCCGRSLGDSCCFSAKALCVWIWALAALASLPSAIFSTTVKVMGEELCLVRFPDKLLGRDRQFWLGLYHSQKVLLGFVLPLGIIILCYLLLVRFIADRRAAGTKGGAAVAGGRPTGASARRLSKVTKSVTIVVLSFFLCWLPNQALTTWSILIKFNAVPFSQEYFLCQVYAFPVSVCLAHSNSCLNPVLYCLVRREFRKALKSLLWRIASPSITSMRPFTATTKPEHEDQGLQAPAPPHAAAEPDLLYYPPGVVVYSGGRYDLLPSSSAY

Molecule: CC[C@H](C)[C@H](NC(=O)[C@H](Cc1ccccc1)NC(=O)[C@H](CCC(=O)O)NC(=O)[C@H](CCCNC(=N)N)NC(=O)CNC(=O)[C@H](CS)NC(=O)[C@H](CC(C)C)NC(=O)[C@H](CCCNC(=N)N)NC(=O)[C@@H](NC(=O)CNC(=O)[C@H](Cc1ccc(O)cc1)NC(=O)[C@@H]1CCCN1C(=O)[C@H](C)NC(=O)[C@H](C)NC(=O)[C@@H](N)CCCNC(=N)N)C(C)C)C(=O)N[C@@H](CCCNC(=N)N)C(=O)N[C@@H](C)C(=O)N[C@H](C(=O)N[C@H](C(=O)N[C@@H](Cc1ccccc1)C(=O)N[C@H](C(=O)N[C@@H](CS)C(=O)NCC(=O)NCC(=O)N[C@@H](CO)C(=O)N[C@@H](CCCNC(=N)N)C(=O)N[C@@H](Cc1c[nH]c2ccccc12)C(=O)O)[C@@H](C)O)[C@@H](C)CC)C(C)C [Analog 2, reference compound]
half-life at 2.5 µg/mL (In vitro serum stability): 0.0517 h

Molecule: CC[C@H](C)[C@@H]1NC(=O)[C@H](C)NC(=O)[C@@H]2CSSC[C@H](N)C(=O)N[C@@H](CC(N)=O)C(=O)N[C@@H](CSSC[C@@H](C(=O)N[C@H](C(=O)N[C@H](C(=O)N[C@@H](Cc3ccccc3)C(=O)N[C@H](C(=O)N[C@@H](CO)C(=O)NCC(=O)NCC(=O)N[C@@H](CO)C(=O)N[C@@H](CCCNC(=N)N)C(=O)N[C@@H](Cc3c[nH]c4ccccc34)C(=O)O)[C@@H](C)O)[C@@H](C)CC)C(C)C)NC(=O)[C@H](CCCNC(=N)N)NC1=O)C(=O)N[C@@H](CCCCN)C(=O)N[C@@H](C)C(=O)N1CCC[C@H]1C(=O)N[C@@H](CCC(=O)O)C(=O)N[C@@H]([C@@H](C)O)C(=O)N[C@@H](C)C(=O)N[C@@H](CCCNC(=N)N)C(=O)N2 [Analog 3] (H-CNCKAPETARCAIRCVIFTSGGSRW-OH; disulfide 1-11, 3-15)
half-life at 2.5 µg/mL (In vitro serum stability): 12.8 h
Fold improvement in serum stability versus linear counterpart (In vitro serum stability; human serum T1/2 of grafted peptide relative to linear R3 B1-27 or R3 B1-22R): 250 fold

Molecule: CC[C@H](C)[C@@H]1NC(=O)[C@H](C)NC(=O)[C@@H]2CSSC[C@H](N)C(=O)N[C@@H](CC(N)=O)C(=O)N[C@@H](CSSC[C@@H](C(=O)N[C@H](C(=O)N[C@H](C(=O)N[C@@H](Cc3ccccc3)C(=O)N[C@H](C(=O)N[C@@H](CO)C(=O)N[C@@H](CCCNC(=N)N)C(N)=O)[C@@H](C)O)[C@@H](C)CC)C(C)C)NC(=O)[C@H](CCCNC(=N)N)NC1=O)C(=O)N[C@@H](CCCCN)C(=O)N[C@@H](C)C(=O)N1CCC[C@H]1C(=O)N[C@@H](CCC(=O)O)C(=O)N[C@@H]([C@@H](C)O)C(=O)N[C@@H](C)C(=O)N[C@@H](CCCNC(=N)N)C(=O)N2 [Analog 9] (H-CNCKAPETARCAIRCVIFTSR-NH2; disulfide 1-11, 3-15)
half-life at 2.5 µg/mL (In vitro serum stability): 6.6 h
cAMP activity pEC50 ± SEM (RXFP3 [1]): No activity

Molecule: RAAPYGVRLSGREFIRAVIFTSR-NH2 [Analog 8, reference compound]
half-life at 2.5 µg/mL (In vitro serum stability): 0.0667 h

Molecule: RAAPYGVRLSGREFIRAVIFTSR-NH2 [Analog 8]
cAMP activity pEC50 ± SEM (RXFP3 [1]): No activity

Ki (RXFP3 [2]): 20.4 nM
B1: relaxin-3 (R3 acid, analog 1) (protein)
chain 1: RAAPYGVRLCGREFIRAVIFTCGGSRW
chain 2: DVLAGLSSSCCKWGCSKSEISSLC

Ki (RXFP3 [2]): 1230 nM
B2: relaxin-3 B-chain (R3 B1-27, analog 2) B-chain 1-27 (peptide)
chain: MARYMLLLLLAVWVLTGELWPGAEARA
